Laboratory results taken from US20190380941A1, “COMPOSITION COMPRISING A TRUFFLE EXTRACT AND NEOHESPERIDIN DIHYDROCHALCONE” (L'OREAL, priority 2016, published 2019).

System: filaggrin
Assay: Filaggrin expression in normal human keratinocytes (NHEK), in-situ immunolabelling
Format: cell-based
Conditions: 72 hours incubation; for Mean filaggrin (AU): fluorescence intensity relative to number of cells, control 12261; for Mean filaggrin (AU) / % relative to the control (filaggrin): truffle extracts 4.5·10^−3% by weight of active material, Neohesperidin DHC 0.3 mg/ml, CaCl2 1.5 mM; for increase of filaggrin protein expression relative to the control: same concentrations as in the table, change versus control; for % relative to the control (filaggrin): control = 100
From the text: The in vitro effect of the combination of neohesperidin dihydrochalcone (neohesperidin DHC) and an extract of black (Périgord) truffle (Tuber melanosporum) and/or an extract of white (summer) truffle (Tuber aestivum) on keratinocyte differentiation is studied. The expression and the location of the marker of filaggrin differentiation are especially studied in keratinocytes in culture which thus makes it possible to evaluate the ability of these combinations to increase the differentiation of these cells. The culture medium is: Keratinocyte-SFM supplemented with: • 0.25 ng/ml Epidermal Growth Factor (EGF); • 25 μg/ml pituitary extract (PE); • 25 μg/ml Gentamicin; The test medium is Keratinocyte-SFM supplemented with 25 μg/ml Gentamicin. The keratinocytes were seeded into 96-well plates and cultured in culture medium for 168 hours with renewal of the culture medium after 24 and 96 hours of incubation. […] All the experimental conditions were carried out in n=3, except the control condition which was carried out in n=6. After incubation, the medium was eliminated and the cells were rinsed, fixed and permeabilized. The cells were then labelled with the primary antibody (see Table A) directed against the protein of interest (filaggrin). […] At the same time, the nuclei of the cells were stained with Hoechst 33258 (bisbenzimide). [table] The image acquisition was carried out with an INCellAnalyzer™ 1000 (GE Healthcare) high-resolution imaging system. For each well, 10 digitized images were captured for each immunolabelling (×20 objective).

| SMILES | Mean filaggrin (AU) | increase of filaggrin protein expression relative to the control | % relative to the control (filaggrin) [%] |
| --- | --- | --- | --- |
| COc1ccc(CCC(=O)c2c(O)cc(O[C@@H]3O[C@H](CO)[C@@H](O)[C@H](O)[C@H]3O[C@@H]3O[C@@H](C)[C@H](O)[C@@H](O)[C@H]3O)cc2O)cc1O [Neohesperidin DHC, 1-(4-((2-O-[6-Deoxy-α-L-mannopyranosyl]-β-D-glucopyranosyl)oxy)-2,6-dihydroxyphenyl)-3-[3-hydroxy-4-methoxyphenyl]-1-propanone] | 18840 | +54% | 154 |
| [Ca+2].[Cl-].[Cl-] [CaCl2, calcium chloride] | 74795 | +510% | 610 |
